# Literature values in patent publication US11077316B2, “Insertion devices and systems for production of emitted light internal to a medium and methods for their use” (Immunolight, LLC, priority 2016, dated 2021).
# Where two headings read alike, the source gives them in different places.
# How the values were obtained:
# [1] = system: Venezuelan equine encephalitis virus (VEEV); settings: INA exposed to full light conditions
# [2] = system: Zaire Ebola virus (ZEBOV); settings: UV light 310 to 360 nm, ex situ in extracted blood
# [3] = orange juice, high UV exposure of 100 mJ/cm^2
# [4] = system: Acinetobacter baumannii; settings: released nitric oxide, light 100 milliWatts per square centimeter
compound,measurement,setting,value
"Oc1cccc(-c2c3nc(c(-c4cccc(O)c4)c4ccc([nH]4)c(-c4cccc(O)c4)c4nc(c(-c5cccc(O)c5)c5ccc2[nH]5)CC4)C=C3)c1 [Foscan, Tetra (m-hydroxyphenyl) chlorin]",duration of skin photosensitivity,clinical,approximately 2 weeks
"[N-]=[N+]=Nc1cccc2c(I)cccc12 [INA, 1,5-iodonaphthyl-azide]",inactivation of virulent strain of VEEV,[1],efficiently inactivate
same,infectivity of ZEBOV after INA treatment,[2],completely noninfectious
CC(=O)[O-].CC(=O)[O-].CCc1c(CC)c2cc3nc(cnc4cc(OCCOCCOCCOC)c(OCCOCCOCCOC)cc4ncc4nc(cc1[n-]2)C(CCCO)=C4C)C(C)=C3CCCO.O.[Lu+3] [Motexafin lutetium],duration of skin photosensitivity,in vivo,24 to 48 h
O=C1O[C@H]([C@@H](O)CO)C(O)=C1O [Vitamin C],degradation of Vitamin C,[3],17%
[Mn(PaPy3)(NO)](ClO4),clearing of bacteria from treated areas of plates,[4],effectively cleared the bacteria
